Data on 23 compounds can be found in ChEMBL document CHEMBL4834424, “Targeting Chikungunya Virus Replication by Benzoannulene Inhibitors” (J Med Chem, 2021).

Converted amounts (≈) assume the structure as drawn.

In general, CC50 refers to the concentration at which the toxic effect on the cells reaches its halfway point. Broadly, the EC50 is the midpoint of the concentration-response curve. For orientation: solubility means how much of the substance goes into solution per volume. What is called IC50 is the concentration at which inhibition is half-maximal. For orientation: logD means the decadic logarithm of the distribution of all forms, ionised or not, between an organic phase and buffer at a given pH.

The nature of data set [1]: Metabolic stability in human liver microsomes assessed as half life in presence of NADPH incubated up to 45 mins by LC-MS/MS analysis. The class given is ADME, Microsome.
Data set [2] in a line: Metabolic stability in mouse liver microsomes assessed as half life in presence of NADPH incubated up to 45 mins by LC-MS/MS analysis. It is filed as ADME, Microsome. More on the design: unit not given here. Particulars: for half-life: liver microsomes; for t1/2: microsomes, 0.75 h. (Liver microsomes are a subcellular fraction often used to study metabolism.)
Data set [3] in a line: Cytotoxicity against human NHDF cells assessed as cell viability measured after 24 hrs by Cell Titer Glo luminescent assay. It is filed as cell-based. As to conditions: NHDF cells.
The subject of data set [4] is Chikungunya virus. Kind of data set: Antiviral activity against CHIKV infected in human NHDF cells assessed as reduction in virus titer in cell supernatant by measuring inhibition of plaque formation using Vero cells pretreated with NHDF cells followed by infected with virus incubated for 24 hrs and measured following infection of supernatants with Vero cells for 48 hrs by plaque based methylene blue dye analysis. It is filed as functional, organism-based.

For data set [5], the system named is Chikungunya virus. Kind of data set: Antiviral activity against CHIKV infected in human NHDF cells assessed as reduction in virus titer in cell supernatant by measuring inhibition of plaque formation using Vero cells at 10 uM pretreated with NHDF cells followed by infected with virus incubated for 24 hrs and measured following infection of supernatants with Vero cells for 48 hrs by plaque based methylene blue dye analysis. It is filed as functional. As to conditions: time 72 hrs.

Data set [6] is described as follows: Aqueous solubility of the compound. The class given is physicochemical.
Data set [7] concerns the target Dihydroorotate dehydrogenase (quinone), mitochondrial (Homo sapiens, UniProt Q02127).
Data set [8] can be described thus: Octanol-aqueous buffer distribution coefficient, log D of the compound by LC-MS analysis. The class given is physicochemical.

Sequence of Dihydroorotate dehydrogenase (quinone), mitochondrial (Q02127 whole entry): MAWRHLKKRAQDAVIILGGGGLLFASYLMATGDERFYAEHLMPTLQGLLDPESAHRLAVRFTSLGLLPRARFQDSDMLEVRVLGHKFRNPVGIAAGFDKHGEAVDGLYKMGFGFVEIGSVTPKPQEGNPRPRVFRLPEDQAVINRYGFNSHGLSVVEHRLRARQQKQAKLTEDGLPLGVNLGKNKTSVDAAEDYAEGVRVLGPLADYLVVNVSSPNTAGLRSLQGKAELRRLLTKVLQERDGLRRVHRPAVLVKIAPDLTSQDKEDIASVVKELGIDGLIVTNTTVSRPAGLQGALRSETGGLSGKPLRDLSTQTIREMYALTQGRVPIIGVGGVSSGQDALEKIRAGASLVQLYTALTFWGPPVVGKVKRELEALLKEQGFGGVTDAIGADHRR

Consider `CC(C)(C)c1ccc(C(=O)Nc2cc3c(cc2O)CCCCC3)cc1`, for which the half-life in data set [1] is 74 h; in data set [2], 1860. Also, in data set [3], the half-maximal cytotoxic concentration (CC50) at 24 h is > 30 µM. Also, the half-maximal effective concentration (EC50) with Chikungunya virus [4] is 0.4 µM. Further, in the data set on Chikungunya virus [5], the “log(activity)” value is on record as 3.5. In data set [6] (buffer), this compound registered a solubility of 1 µM (≈ 0.337 µg/mL). In addition, the IC50 in data set [7] is > 30 µM. In data set [8], this compound returned a pH-dependent lipophilicity (logD) of 5.
For `CC(C)(C)c1ccc(C(=O)Nc2cc3c(cc2CO)CCCCC3)cc1`, the values for the half-life in data set [1] and in data set [2] were 64 h and 1320, respectively. For the same compound, in data set [3], the CC50 at 24 h is > 30 µM. The “log(activity)” value in the data set on Chikungunya virus [5] is reported as <1. Moreover, the solubility in data set [6] (aqueous, read-out: solubility) is < 1 µM. This compound also had a log distribution coefficient (logD) in data set [8] of 4.
On to `CC(C)(C)c1ccc(C(=O)Nc2cc3c(cc2C#N)CCCCC3)cc1`, for which the half-life in data set [1] is 76 h; in data set [2], 1860. The CC50 at 24 h in data set [3] was > 30 µM. Also, the concentration giving a half-maximal response (EC50) in the data set with Chikungunya virus [4] stood at 4.4 µM. In addition, the “log(activity)” value with Chikungunya virus [5] worked out at 1.8. The solubility in data set [6] (aqueous, read-out: solubility) was < 1 µM. In data set [8], the logD amounted to 5.
For `COc1cc2c(cc1C(=O)Nc1ccc(C(C)(C)C)cn1)CCCCC2`, the IC50 in data set [7] is > 30 µM.
Consider `COc1nc2c(cc1C(=O)Nc1ccc(C(C)(C)C)cn1)CCCCC2`, for which the half-life was 88 h in data set [1] and 3960 in data set [2]. Also, the 50% cytotoxic concentration (CC50) at 24 h in data set [3] was > 30 µM. In addition, the “log(activity)” value in the data set on Chikungunya virus [5] is given as 0.27. In data set [6] (aqueous, read-out: solubility), the solubility is < 1 µM. The logD in data set [8] is > 4.7.
Take `CC(C)(C)c1ccc(C(=O)Nc2cc3c(cc2OC(F)(F)F)CCCCC3)cc1`: the t1/2 in data set [2] worked out at 127. Moreover, the CC50 at 24 h in data set [3] was > 30 µM. Moreover, the EC50 with Chikungunya virus [4] was found to be 3.7 µM. The solubility in data set [6] (buffer) was found to be 8 µM (≈ 3.24 µg/mL). In data set [8], this compound yielded a logD of 5.
For the compound `CC(C)(C)c1ccc(C(=O)Nc2cc3c(cc2F)CCCCC3)cc1`, the half-life in data set [1] is 28 h. Moreover, the t1/2 in data set [2] worked out at 4. In data set [3], the 50% cytotoxic concentration (CC50) at 24 h was > 30 µM. Further, the half-maximal effective concentration (EC50) in the data set on Chikungunya virus [4] turned out to be 0.8 µM. Besides, in the data set with Chikungunya virus [5], the “log(activity)” value is reported as 4.9. For the same compound, the solubility in data set [6] (aqueous, read-out: solubility) worked out at 33 µM (≈ 11.2 µg/mL). The log distribution coefficient (logD) in data set [8] was 4.
As to `COc1cc2c(nc1NC(=O)c1ccc(C(C)(C)C)cn1)CCCCC2`, the CC50 at 24 h in data set [3] is > 30 µM. Besides, the EC50 in the data set with Chikungunya virus [4] is 2.9 µM. Moreover, the “log(activity)” value with Chikungunya virus [5] amounted to 4.05. The IC50 in data set [7] was > 30 µM.
With `COc1cc2c(cc1NC(=O)c1ccc(C(C)(C)C(F)(F)F)cc1)CCCCC2`, the half-life in data set [1] was 106 h; in data set [2] it was 2100. Besides, in data set [3], the CC50 at 24 h was > 30 µM. Besides, the concentration for a half-maximal effect (EC50) in the data set on Chikungunya virus [4] amounted to 3.47 µM. The “log(activity)” value in the data set on Chikungunya virus [5] is recorded as 1.8. For the same compound, the solubility in data set [6] (aqueous, read-out: solubility) was < 1 µM. Also, in data set [8], the logD amounted to 6.
Turning to `CC(C)(C)c1ccc(NC(=O)c2cc3c(cc2OC(F)F)CCCCC3)cc1`, the half-life was 70 h in data set [1] and 660 in data set [2]. The CC50 at 24 h in data set [3] was > 30 µM. The “log(activity)” value in the data set on Chikungunya virus [5] is reported as 1.4. Also, the logD in data set [8] is 5.
Take `[2H]C([2H])([2H])Oc1cc2c(cc1NC(=O)c1ccc(C(C)(C)C)cc1)CCCCC2`: the half-life in data set [1] was 31 h. In data set [3], the CC50 at 24 h is > 30 µM. Besides, the half-maximal effective concentration (EC50) in the data set with Chikungunya virus [4] came to 1 µM. The “log(activity)” value in the data set with Chikungunya virus [5] was found to be 23. Besides, the solubility in data set [6] (aqueous, read-out: solubility) is 28 µM (≈ 9.93 µg/mL). Further, the logD in data set [8] is 3.
For the compound `COc1cc2c(cc1NC(=O)c1ccc(C(O)(C(F)(F)F)C(F)(F)F)cc1)CCCCC2`, the figures for the half-life in data set [1] and in data set [2] were 70 h and 660, respectively. Moreover, the 50% cytotoxic concentration (CC50) at 24 h in data set [3] is > 30 µM. Besides, the EC50 in the data set on Chikungunya virus [4] amounted to 2.8 µM. Further, the “log(activity)” value with Chikungunya virus [5] turned out to be 3.1. The solubility in data set [6] (aqueous, read-out: solubility) was < 1 µM. Also, the log distribution coefficient (logD) in data set [8] stood at 5.
`COc1cc2c(cc1C(=O)Nc1cc(C(C)(C)C)[nH]n1)CCCCC2`: in data set [7], the half-inhibitory concentration (IC50) is > 30 µM.
Consider `CC(C)(C)c1ccc(C(=O)Nc2ccc3c(c2)CCCCC3)cc1`, for which the half-life in data set [1] is 33 h; in data set [2] it was 1380. Further, the CC50 at 24 h in data set [3] was > 30 µM. Moreover, the EC50 in the data set with Chikungunya virus [4] was found to be 0.7 µM. Besides, the “log(activity)” value in the data set on Chikungunya virus [5] was 3.9. Moreover, the solubility in data set [6] (buffer) was determined as 35 µM (≈ 11.3 µg/mL). In data set [8], this compound came in with a logD of 4.
As for `COc1cc2c(cc1NC(=O)c1ccc(C3(C(F)(F)F)CC3)cc1)CCCCC2`, the half-life in data set [1] is 67 h; in data set [2] it was 1320. Further, in data set [3], the cytotoxic concentration (CC50) at 24 h is > 30 µM. The EC50 in the data set on Chikungunya virus [4] turned out to be 1.3 µM. In addition, the “log(activity)” value in the data set on Chikungunya virus [5] amounted to 1. Moreover, the solubility in data set [6] (aqueous, read-out: solubility) was < 1 µM. Further, the log distribution coefficient (logD) in data set [8] is 6.
On to `COc1cc2c(cc1C(=O)Nc1ccc(C(C)(C)O)cc1)CCCCC2`, for which the 50% cytotoxic concentration (CC50) at 24 h in data set [3] was > 30 µM. The EC50 in the data set on Chikungunya virus [4] was found to be 8 µM. In addition, the “log(activity)” value with Chikungunya virus [5] is reported as 1.6. Half-maximal inhibition in data set [7] (IC50) was put at 24.1 µM.
Take `CC(=O)Oc1cc2c(cc1NC(=O)c1ccc(C(C)(C)C)cc1)CCCCC2`: the half-life in data set [1] is 7 h. For the same compound, the CC50 at 24 h in data set [3] is > 30 µM. In addition, the concentration giving a half-maximal response (EC50) in the data set with Chikungunya virus [4] worked out at 2.8 µM. The “log(activity)” value in the data set on Chikungunya virus [5] stood at 52. Besides, in data set [6] (aqueous, read-out: solubility), the solubility was < 1 µM. Further, in data set [8], the logD is 5.
Consider `COc1cc2c(cc1NC(=O)c1ccc(C(C)(C)C#N)cc1)CCCCC2`, for which the figures for the half-life in data set [1] and in data set [2] were 51 h and 720, respectively. In addition, the CC50 at 24 h in data set [3] is > 30 µM. For the same compound, the half-maximal effective concentration (EC50) with Chikungunya virus [4] is 1.6 µM. In addition, the “log(activity)” value in the data set with Chikungunya virus [5] stood at 1.7. Besides, the solubility in data set [6] (aqueous, read-out: solubility) amounted to 35 µM (≈ 12.7 µg/mL). This compound returned a pH-dependent lipophilicity (logD) in data set [8] of 4.
As to `Cc1cc2c(cc1NC(=O)c1ccc(C(C)(C)C)cc1)CCCCC2`, the half-life in data set [1] is 63 h; in data set [2], 660. For the same compound, in data set [3], the CC50 at 24 h was > 30 µM. In addition, the concentration giving a half-maximal response (EC50) with Chikungunya virus [4] was 2.41 µM. The “log(activity)” value with Chikungunya virus [5] was 3.5. Also, the solubility in data set [6] (aqueous, read-out: solubility) is < 1 µM. The logD in data set [8] turned out to be 4.
Regarding `CC(C)(C)c1ccc(NC(=O)c2cc3c(cc2O)CCCCC3)cc1`, the values for the half-life in data set [1] and in data set [2] were 49 h and 4680, respectively. In addition, the CC50 at 24 h in data set [3] is > 30 µM. The concentration giving a half-maximal response (EC50) with Chikungunya virus [4] was 1.54 µM. In addition, the “log(activity)” value with Chikungunya virus [5] is 3.3. Moreover, in data set [6] (aqueous, read-out: solubility), the solubility was < 1 µM. Also, the IC50 in data set [7] is > 30 µM. For the same compound, in data set [8], the pH-dependent lipophilicity (logD) is 4.2.
Turning to `COc1nc2c(cc1C(=O)Nc1ncc(C(C)(C)C)cn1)CCCCC2`, the values for the half-life in data set [1] and in data set [2] were 67 h and 1620, respectively. In addition, the CC50 at 24 h in data set [3] was > 30 µM. Also, the EC50 in the data set on Chikungunya virus [4] was determined as 9 µM. Also, in the data set with Chikungunya virus [5], the “log(activity)” value was 1.95. The same compound returned a solubility in data set [6] (buffer) of 64 µM (≈ 22.7 µg/mL). In data set [8], this compound registered a log distribution coefficient (logD) of 3.
In the case of `COc1cc2c(cc1NC(=O)c1ccc(C(C)(C)O)cc1)CCCCC2`, the half-life in data set [1] is 254 h; in data set [2], 1140. Besides, in data set [3], the 50% cytotoxic concentration (CC50) at 24 h was > 30 µM. The EC50 in the data set on Chikungunya virus [4] was 2.45 µM. Moreover, the “log(activity)” value with Chikungunya virus [5] was 1.6. Besides, the solubility in data set [6] (aqueous, read-out: solubility) amounted to 8 µM (≈ 2.83 µg/mL). In data set [8], the pH-dependent lipophilicity (logD) turned out to be 4.
`COc1nc2c(cc1C(=O)Nc1ccc(C(C)(C)C)cc1)CCCCC2`: the half-life in data set [1] is 102 h; in data set [2], 2700. Also, in data set [3], the 50% cytotoxic concentration (CC50) at 24 h was > 30 µM. Besides, in the data set on Chikungunya virus [5], the “log(activity)” value was found to be 1.3. Besides, the solubility in data set [6] (aqueous, read-out: solubility) turned out to be 1.8 µM (≈ 0.634 µg/mL). Further, the logD in data set [8] is 4.6.
